{"source": "patent US10357035B2", "about": "“Microbiocidal anilide derivatives” (SYNGENTA PARTICIPATIONS AG, priority 2015, dated 2019)", "data": [{"smiles": "CC1(C)CCC(Oc2ccc(NC(=O)c3cccc4ncoc34)c(F)c2)CC1", "note": "[I.r.133, N-[4-(4,4-dimethylcyclohexoxy)-2-fluoro-phenyl]-1,3-benzoxazole-7-carboxamide]", "values": [{"measurement": "melting point", "value": "130 to 132", "unit": "°C"}]}, {"smiles": "COc1ccnc(C(=O)Nc2ccc(OC3CCCCC3)cc2)c1O", "note": "[I.b.66, N-[4-(cyclohexoxy)phenyl]-3-hydroxy-4-methoxy-pyridine-2-carboxamide]", "values": [{"measurement": "melting point", "value": "114 to 117", "unit": "°C"}]}]}
